Results taken from article PMC9456187, “The Ambivalence of Connexin43 Gap Peptides in Cardioprotection of the Isolated Heart against Ischemic Injury” (International Journal of Molecular Sciences, 2022).

Test system: subsarcolemmal mitochondria isolated from perfused rat hearts
Test: High-resolution respirometry of isolated subsarcolemmal mitochondria
Assay type: biochemical, male Wistar rat
Settings: pH 7.4, 37 °C; for Oxygen flux, +Oligomycin: oligomycin 4 µg/mL; for Oxygen flux, +Oligomycin / Oxygen flux, +ADP 50 µM / Oxygen flux, Glutamate + Maleate / Oxygen flux, OXPHOS Saturating +ADP 2.5 mM / Oxygen flux, State 4 (LEAK ATP): mean ± SEM, n = 3; for Oxygen flux, +ADP 50 µM / Oxygen flux, Glutamate + Maleate / Oxygen flux, OXPHOS Saturating +ADP 2.5 mM / Oxygen flux, State 4 (LEAK ATP): 10 min preincubation on ice
Procedure: All experiments were approved by the Norwegian animal research authority and were performed according to the Norwegian Animal Welfare Act and the European Convention for the Protection of Vertebrate Animals Used for Experimental and other Scientific Purposes (ETS No. 123 and 2010/63/EU). Male Wistar rats 250–350 g (Charles River, UK) were anesthetized with pentobarbital (100 mg/kg i.p.) and heparinized (300 IU i.p.), the chest opened and the heart removed.
Hearts were control perfused or subjected to IPC. Isolation of mitochondria was performed using the procedure described by Palmer et al. (1977) with minor modifications. All procedures were performed on ice or at 4 °C. Briefly, the ventricles were removed, weighed and placed in the buffer containing (in mM): 100 KCl, 50 MOPS, 1 EGTA, 5 MgSO4, 1 ATP and pH 7.4. Heart tissue was minced with scissors in a small volume of buffer. Buffer plus bovine serum albumin BSA (2 mg/mL) were added, and the tissue suspension was homogenized with Polytron for 7 s and thereafter with two strokes of a Potter-Elvehjem homogenizer (Glas-Col, Terre Haute, IN, USA) and centrifuged at 590× g for 10 min at 4 °C. The supernatant was filtered through a nylon net (NITEX 300 lm; Yulee, FL, USA). Supernatants now containing mitochondria mainly from the subsarcolemmal compartment (SSM fraction) were centrifuged at 3000× g for 10 min at 4 °C, and the SSM pellet was again resuspended in the buffer plus BSA and centrifuged at 3000× g for 10 min. The pellet was resuspended in the buffer containing (in mM): 100 KCl, 50 MOPS 50, 0.5 EGTA and pH 7.4 and centrifuged at 3000× g for 10 min at 4 °C. The final pellet was resuspended in this buffer and left on ice for 30 min for stabilization of membranes.
Measurement of mitochondrial oxygen consumption was performed in an oxygraph (Oxygraph 2k; Oroboros Instruments, Innsbruck, Austria) using a respiration medium [100 KCl; 50 MOPS; 1 EGTA; 5 KH2PO4 (all in mM); BSA 1 mg mL) and pH = 7.4] in a closed 2 mL chamber at 37 °C. Glutamate (5.0 mM) and malate (2.5 mM) were used as substrates. After obtaining stable respiration O2 flux (nmol O2/min/mL), ADP was added to a final concentration of 50 µM to measure coupled respiration. After depletion of ADP and stable respiration, a saturating ADP amount (2.5 mM) was added to obtain max coupled respiration (OxPhos). Finally, oligomycin was added to a final concentration of 4 µg/mL to inhibit the ATP-synthase, and a stable state oligomycin measurement was recorded. At the end of the experiments, protein content was estimated by the Bradford method, and citrate synthase activity was measured. Results of O2 flux measurements (nmol O2/min) were normalized to citrate synthase activity (IU µmol/min) in the sample. Phosphate/oxygen ratio (P/O ratio) was calculated as ADP phosphorylated divided by oxygen molecules consumed. The respiratory control ratio (RCR) was calculated as the ratio between max state 3 (OxPhos) and […].
In order to assess the effect of Gap26 and Gap27 on mitochondrial respiration, peptides in concentrations 0.5, 5.0 and 50.0 µM were added to the isolated mitochondria. After 10 min preincubation on ice 60 µL of the suspension was added to the oxygraphy, and peptide concentration was adjusted to the new volume, so the final peptide concentration was the same during the whole experiment. Each subgroup consisted of samples from 3–4 hearts, and care was taken to minimize variability by testing the different Gap peptides and concentrations concomitantly in every heart at the same time using multiple respiratory chambers.
Statistical analysis was performed by SigmaPlot version 14.5 (Systate Software Inc. Chicago, IL, USA) using one-way or two-way ANOVA followed by the Holms Sidac method as a post hoc test when appropriate. Results are presented as mean ± SEM except for binding kinetics, which is presented as mean ± SD (n = 3–4).

[1] = control hearts (crt), peptide 0.5 µM
[2] = control hearts (crt), peptide 5 µM
[3] = control hearts (crt), peptide 50 µM

In the case of KQIEKKFK [Gap19], the “Mitochondrial respiration / average oxygen flux, RCR or P/O ratio (in words)” value (Gap peptides 0.5, 5, 50 µM added in vitro to isolated mitochondria from control or IPC hearts, glutamate + malate) is reported as “not able to detect significant change”, the “Oxygen flux, +Oligomycin” value (IPC hearts, peptide 0.5 µM) is reported as 37.8 ± 7.4 nmol O2 (µmol IU CS Activity)^−1 and the “Oxygen flux, +ADP 50 µM” value (IPC hearts, peptide 0.5 µM) is reported as 69.8 ± 28.0 nmol O2 (µmol IU CS Activity)^−1. The “Oxygen flux, Glutamate + Maleate” value (IPC hearts, peptide 0.5 µM) was 15.2 ± 4.2 nmol O2 (µmol IU CS Activity)^−1, the “Oxygen flux, OXPHOS Saturating +ADP 2.5 mM” value (IPC hearts, peptide 0.5 µM) was 92.5 ± 25.1 nmol O2 (µmol IU CS Activity)^−1 and the “Oxygen flux, State 4 (LEAK ATP)” value (IPC hearts, peptide 0.5 µM) was 21.2 ± 5.3 nmol O2 (µmol IU CS Activity)^−1. For the same sequence, the “Oxygen flux, +Oligomycin” value (IPC hearts, peptide 5 µM) was 39.0 ± 3.7 nmol O2 (µmol IU CS Activity)^−1, the “Oxygen flux, +ADP 50 µM” value (IPC hearts, peptide 5 µM) was 71.4 ± 7.5 nmol O2 (µmol IU CS Activity)^−1 and the “Oxygen flux, Glutamate + Maleate” value (IPC hearts, peptide 5 µM) was 15.9 ± 1.7 nmol O2 (µmol IU CS Activity)^−1. The “Oxygen flux, OXPHOS Saturating +ADP 2.5 mM” value (IPC hearts, peptide 5 µM) was 98.3 ± 10.5 nmol O2 (µmol IU CS Activity)^−1, the “Oxygen flux, State 4 (LEAK ATP)” value (IPC hearts, peptide 5 µM) was 21.0 ± 2.6 nmol O2 (µmol IU CS Activity)^−1 and the “Oxygen flux, +Oligomycin” value (IPC hearts, peptide 50 µM) was 44.2 ± 7.5 nmol O2 (µmol IU CS Activity)^−1. The “Oxygen flux, +ADP 50 µM” value (IPC hearts, peptide 50 µM) was 76.8 ± 21.6 nmol O2 (µmol IU CS Activity)^−1, the “Oxygen flux, Glutamate + Maleate” value (IPC hearts, peptide 50 µM) was 19.6 ± 6.1 nmol O2 (µmol IU CS Activity)^−1 and the “Oxygen flux, OXPHOS Saturating +ADP 2.5 mM” value (IPC hearts, peptide 50 µM) was 116.2 ± 37.7 nmol O2 (µmol IU CS Activity)^−1. The “Oxygen flux, State 4 (LEAK ATP)” value (IPC hearts, peptide 50 µM) was 24.0 ± 6.1 nmol O2 (µmol IU CS Activity)^−1, the “Oxygen flux, +Oligomycin” value [1] was 42.8 ± 4.5 nmol O2 (µmol IU CS Activity)^−1 and the “Oxygen flux, +ADP 50 µM” value [1] was 68.9 ± 6.5 nmol O2 (µmol IU CS Activity)^−1. For the same sequence, the “Oxygen flux, Glutamate + Maleate” value [1] was 16.6 ± 5.0 nmol O2 (µmol IU CS Activity)^−1, the “Oxygen flux, OXPHOS Saturating +ADP 2.5 mM” value [1] was 89.2 ± 35.6 nmol O2 (µmol IU CS Activity)^−1 and the “Oxygen flux, State 4 (LEAK ATP)” value [1] was 23.8 ± 5.2 nmol O2 (µmol IU CS Activity)^−1. The “Oxygen flux, +Oligomycin” value [2] was 43.5 ± 2.6 nmol O2 (µmol IU CS Activity)^−1, the “Oxygen flux, +ADP 50 µM” value [2] was 75.1 ± 11.3 nmol O2 (µmol IU CS Activity)^−1 and the “Oxygen flux, Glutamate + Maleate” value [2] was 16.6 ± 2.6 nmol O2 (µmol IU CS Activity)^−1. The “Oxygen flux, OXPHOS Saturating +ADP 2.5 mM” value [2] was 113.7 ± 12.9 nmol O2 (µmol IU CS Activity)^−1, the “Oxygen flux, State 4 (LEAK ATP)” value [2] was 22.1 ± 1.6 nmol O2 (µmol IU CS Activity)^−1 and the “Oxygen flux, +Oligomycin” value [3] was 44.6 ± 5.1 nmol O2 (µmol IU CS Activity)^−1. For the same sequence, the “Oxygen flux, +ADP 50 µM” value [3] was 78.9 ± 14.0 nmol O2 (µmol IU CS Activity)^−1, the “Oxygen flux, Glutamate + Maleate” value [3] was 18.2 ± 0.9 nmol O2 (µmol IU CS Activity)^−1 and the “Oxygen flux, OXPHOS Saturating +ADP 2.5 mM” value [3] was 115.3 ± 8.7 nmol O2 (µmol IU CS Activity)^−1. For the same sequence, the “Oxygen flux, State 4 (LEAK ATP)” value [3] was 24.8 ± 3.0 nmol O2 (µmol IU CS Activity)^−1.
